Laboratory results from US20230339863A1, “INDAZOLE DERIVATIVES AS CANNABINOID RECEPTOR PARTIAL AGONISTS” (RESEARCH TRIANGLE INSTITUTE, priority 2020, published 2023).

Tests used:
human CB2 = human CB2 (Homo sapiens (Human), UniProt P34972); assay: In vitro cannabinoid receptor activity assay (calcium mobilization, FLIPR) in CHO cells expressing human CB2 and Gαq16; type: cell-based; conditions: for EC50: CHO cells, hCB2, calcium fluorescence, read-out: hCB2 Ca EC50; for hCB2 Ca Span: percentage of the maximum CP55940 signal
Procedure: (§1) In vitro cannabinoid receptor activity assay. Chinese Hamster Ovary (CHO) cells stably expressing either human CB1 or CB2 cDNA and the promiscuous G-protein Gαq16 were transferred to each well of a black Costar 96-well optical bottom plate (Corning Corporation). Each plate was incubated at 37° C. for 24 hr to confluence. The culture media was removed from the plates and cells were subsequently loaded with a fluorescent calcium probe (Calcium 5 dye, Molecular Devices) at a final loading concentration of 2 μM in a HBSS-based buffer containing 20 mM HEPES, 1% BSA and 10 μM Probenecid (Sigma) in a total volume of 225 μl. Cells were incubated at 37° C. for 1 hr and then stimulated with various concentrations of a test agent using a FLIPR Tetra plate-reader, which automatically added the agonist at 10× concentration to each well after reading baseline values for ˜17 sec. Agonist-mediated change in fluorescence (488 nm excitation, 525 nm emission) was monitored in each well at 1 sec intervals for 60 sec and reported for each well. Data were analyzed using Prism software (GraphPad). Non-linear regression analysis was performed to fit data and obtain maximum response (Emax), effective concentration for 50% response (EC50), correlation coefficient (r2) and other parameters. All experiments were performed 3-6 times to ensure reproducibility.
(§2) Reference is made to the following reference, hereby incorporated by reference with regard to such assay, Seltzman, et al., Peripherally Selective Cannabinoid 1 Receptor (CB1R) Agonists for the Treatment of Neuropathic Pain, J Med Chem. 2016 Aug. 25; 59 (16):7525-43. doi: 10.1021/acs.jmedchem.6b00516. Epub 2016 Aug. 10.

human CB1 = human CB1 (Homo sapiens (Human), UniProt P21554); assay: In vitro cannabinoid receptor activity assay (calcium mobilization, FLIPR) in CHO cells expressing human CB1 and Gαq16; type: cell-based; conditions: for EC50: CHO cells, hCB1, calcium fluorescence, read-out: hCB1 Ca EC50; for hCB1 Ca Span: percentage of the maximum CP55940 signal
Procedure: as §1, §2

For CC(C)(NC(=O)c1nn(Cc2ccc(F)cc2)c2ccccc12)C1CCCN(C(N)=O)C1 (centres unmarked) [Example 29, N-[2-(1-Carbamoylpiperidin-3-yl)propan-2-yl]-1-[(4-fluorophenyl)methyl]-1H-indazole-3-carboxamide], the EC50 (human CB2) was 0.046 µM, the “hCB2 Ca Span” value (human CB2) was 36% and the EC50 (human CB1) was 0.14 µM. The “hCB1 Ca Span” value (human CB1) was 75%.

For CNC(=O)Nc1cccc(C(C)(C)NC(=O)c2nn(CC3CCC(F)(F)CC3)c3ccccc23)c1 [Example 26, 1-[(4,4-Difluorocyclohexyl)methyl]-N-(2-{3-[(methylcarbamoyl)amino]phenyl}propan-2-yl)-1H-indazole-3-carboxamide], the EC50 (human CB2) was 0.034 µM, the “hCB2 Ca Span” value (human CB2) was 61% and the EC50 (human CB1) was 0.016 µM. For the same compound, the “hCB1 Ca Span” value (human CB1) was 110%.

In the case of CC(C)(NC(=O)c1nn(Cc2ccc(F)cc2)c2ccccc12)C1CCN(CC(N)=O)CC1 [Example 32, N-{2-[1-(Carbamoylmethyl)piperidin-4-yl]propan-2-yl}-1-[(4-fluorophenyl)methyl]-1H-indazole-3-carboxamide], the EC50 (human CB2) is reported as 0.029 µM, the “hCB2 Ca Span” value (human CB2) is reported as 62% and the EC50 (human CB1) is reported as 0.04 µM. The “hCB1 Ca Span” value (human CB1) was 110%.

In the case of CCCCCn1nc(C(=O)NC(C)(C)c2cccc(NC(=O)NC)c2)c2ccccc21 [Example 27, N-(2-{3-[(Methylcarbamoyl)amino]phenyl}propan-2-yl)-1-pentyl-1H-indazole-3-carboxamide], the EC50 (human CB2) is reported as 0.17 µM, the “hCB2 Ca Span” value (human CB2) is reported as 55% and the EC50 (human CB1) is reported as 0.1 µM. For the same compound, the “hCB1 Ca Span” value (human CB1) was 100%.

With CC(C)(NC(=O)c1nn(CC2CCOCC2)c2ccccc12)c1cccc(C(N)=O)c1 [Example 16, N-[2-(3-Carbamoylphenyl)propan-2-yl]-1-(oxan-4-ylmethyl)-1H-indazole-3-carboxamide] the EC50 (human CB2) was 0.063 µM, the “hCB2 Ca Span” value (human CB2) was 57% and the EC50 (human CB1) was 0.14 µM. The “hCB1 Ca Span” value (human CB1) was 92%.

For CC(C)(NC(=O)c1nn(CC2CCC(F)(F)CC2)c2ccccc12)c1cccc(C(N)=O)c1 [Example 15, N-[2-(3-Carbamoylphenyl)propan-2-yl]-1-[(4,4-difluorocyclohexyl)methyl]-1H-indazole-3-carboxamide], the EC50 (human CB2) was 0.051 µM, the “hCB2 Ca Span” value (human CB2) was 38% and the EC50 (human CB1) was 0.015 µM. The “hCB1 Ca Span” value (human CB1) was 86%.

With CC(C)(NC(=O)c1nn(CCCCC(F)(F)F)c2ccccc12)c1cccc(C(N)=O)c1 [Example 19, N-[2-(3-Carbamoylphenyl)propan-2-yl]-1-(5,5,5-trifluoropentyl)-1H-indazole-3-carboxamide] the EC50 (human CB2) was 0.48 µM, the “hCB2 Ca Span” value (human CB2) was 39% and the EC50 (human CB1) was 0.15 µM. The “hCB1 Ca Span” value (human CB1) was 64%.

With CC(C)(NC(=O)c1cn(Cc2ccc(F)cc2)c2ccccc12)c1cccc(C(N)=O)c1 [Example 33, N-[2-(3-Carbamoylphenyl)propan-2-yl]-1-[(4-fluorophenyl)methyl]-1H-indole-3-carboxamide] the EC50 (human CB2) was 0.16 µM, the “hCB2 Ca Span” value (human CB2) was 30% and the EC50 (human CB1) was 0.87 µM. For the same compound, the “hCB1 Ca Span” value (human CB1) was 25%.
